Experimental data taken from patent publication US9682083B2, “Pyrrolo[2,3-D]pyrimidine derivatives, process for their preparation and their use as kinase inhibitors” (NERVIANO MEDICAL SCIENCES S.R.L., priority 2013, dated 2017).

Legend:
Type in all cases: cell-based
[1] = system: A2780 ovarian carcinoma; test: In vitro cell proliferation assay (CellTiterGlo), A2780 control line; conditions: Homo sapiens, antiproliferative activity, 72 hours exposure, non RET-dependent control cell line
Protocol: (§1) In Vitro Cell Proliferation Assay
(§2) To evaluate the antiproliferative activity of a compound of formula (I) the following human cell lines were used: A2780 ovarian carcinoma; TT and MZ-CRC-1 medullary thyroid carcinoma, harboring a mutated RET-C634W and RET-M918T receptor respectively; LC-2/ad human lung adenocarcinoma, harboring the CCDC6-RET fusion protein. Exponentially growing cells were seeded and incubated at 37° C. in a humidified 5% CO2 atmosphere using appropriate medium supplemented with 10% Fetal Bovine Serum. 24 hours following cell plating, scalar doses of the compounds dissolved in 0.1% DMSO were added to the medium and cells were exposed to drugs for either 72 hours (A2780) or 144 hours (TT, MZ-CRC-1 and LC-2/ad), according to their different proliferation rate. At the end of treatment, cell proliferation was determined by an intracellular ATP monitoring system (CellTiterGlo—Promega), following manufacturer's instructions, and using an Envision instrument (PerkinElmer) as reader. Data obtained from compound versus vehicle treated cells were compared using Assay Explorer (Symyx Technologies Inc) software. IC50 values were calculated using sigmoidal interpolation curve fitting.
(§3) In the following Table A the antiproliferative activity of representative compounds of formula (I) on two medullary thyroid carcinoma cell lines expressing the aforementioned mutated forms of RET (TT and MZ-CRC-1) and on one lung adenocarcinoma cell line harboring the aforementioned fusion form of RET (LC-2/ad) is reported. As control, the antiproliferative activity of the same compounds on an unrelated non RET-dependent cell line (A2780) is reported. All these compounds show remarkable activity on RET-driven cellular models with respect to the unrelated ones.

[2] = system: TT medullary thyroid carcinoma, harboring a mutated RET-C634W receptor; test: In vitro cell proliferation assay (CellTiterGlo), TT; conditions: Homo sapiens, antiproliferative activity, 144 h exposure
Protocol: as §1, §2, §3

[3] = system: LC-2/ad human lung adenocarcinoma, harboring the CCDC6-RET fusion protein; test: In vitro cell proliferation assay (CellTiterGlo), LC-2/ad; conditions: antiproliferative activity, 144 h exposure
Protocol: as §1, §2, §3

[4] = system: MZ-CRC-1 medullary thyroid carcinoma, harboring a mutated RET-M918T receptor; test: In vitro cell proliferation assay (CellTiterGlo), MZ-CRC-1; conditions: Homo sapiens, antiproliferative activity, 144 h exposure
Protocol: as §1, §2, §3

SMILES | IC50 [1] [nM] | IC50 [2] [µM] | IC50 [3] [µM] | IC50 [4] [µM]
Cc1ccc(C(=O)Nc2cccc(C#Cc3c[nH]c4ncnc(N)c34)c2)cc1 [cmpd 31, N-{3-[(4-amino-7H-pyrrolo[2,3-d]pyrimidin-5-yl)ethynyl]phenyl}-4-methylbenzamide] | 4450 | 0.111 |  | 
COc1cccc(-n2cc(C#Cc3cccc(C(=O)NC4CC4)c3)c3c(N)ncnc32)c1 [cmpd 70, 3-{[4-amino-7-(3-methoxyphenyl)-7H-pyrrolo[2,3-d]pyrimidin-5-yl]ethynyl}-N-cyclopropylbenzamide] | > 10000 | 0.213 | 0.213 | 
CCN1CCN(Cc2ccc(NC(=O)c3cccc(C#Cc4cn(C(C)C)c5ncnc(N)c45)c3)cc2C(F)(F)F)CC1 [cmpd 82, 3-{[4-amino-7-(propan-2-yl)-7H-pyrrolo[2,3-d]pyrimidin-5-yl]ethynyl}-N-{4-[(4-ethylpiperazin-1-yl)methyl]-3-(trifluoromethyl)phenyl}benzamide] | 46 | 0.001 | 0.004 | 
CC(C)n1cc(C#Cc2cccc(C(N)=O)c2)c2c(N)ncnc21 [cmpd 110, 3-{[4-amino-7-(propan-2-yl)-7H-pyrrolo[2,3-d]pyrimidin-5-yl]ethynyl}benzamide] | 5880 | 0.227 | 0.279 | 
Cc1ccc(C(=O)NC2CC2)cc1C#Cc1cn(CC(F)(F)F)c2ncnc(N)c12 [cmpd 52, 3-{[4-amino-7-(2,2,2-trifluoroethyl)-7H-pyrrolo[2,3-d]pyrimidin-5-yl]ethynyl}-N-cyclopropyl-4-methylbenzamide] | 3910 | 0.1 | 0.107 | 0.201
CC(C)n1cc(C#Cc2cccc(C(=O)NC3CC3)c2)c2c(N)ncnc21 [cmpd 40, 3-{[4-amino-7-(propan-2-yl)-7H-pyrrolo[2,3-d]pyrimidin-5-yl]ethynyl}-N-cyclopropylbenzamide] | 1930 | 0.022 | 0.033 | 0.049
CCC(C)n1cc(C#Cc2cccc(C(=O)NC3CC3)c2)c2c(N)ncnc21 (centres unmarked) [cmpd 85, 3-{[4-amino-7-(butan-2-yl)-7H-pyrrolo[2,3-d]pyrimidin-5-yl]ethynyl}-N-cyclopropylbenzamide] | 1600 | 0.03 | 0.024 | 
CCn1c(C)c(C#Cc2cccc(C(=O)NC3CC3)c2)c2c(N)ncnc21 [cmpd 87, 3-[(4-amino-7-ethyl-6-methyl-7H-pyrrolo[2,3-d]pyrimidin-5-yl)ethynyl]-N-cyclopropylbenzamide] | 1520 | 0.019 | 0.012 | 
Nc1ncnc2[nH]cc(C#Cc3cccc(NC(=O)c4cccc(F)c4)c3)c12 [cmpd 26, N-{3-[(4-amino-7H-pyrrolo[2,3-d]pyrimidin-5-yl)ethynyl]phenyl}-3-fluorobenzamide] | 3670 | 0.14 | 0.49 | 
CC1(Cn2cc(C#Cc3cccc(C(=O)NC4CC4)c3)c3c(N)ncnc32)COC1 [cmpd 88, 3-({4-amino-7-[(3-methyloxetan-3-yl)methyl]-7H-pyrrolo[2,3-d]pyrimidin-5-yl}ethynyl)-N-cyclopropylbenzamide] | 1520 | 0.052 | 0.048 | 
Nc1ncnc2c1c(C#Cc1cccc(C(=O)NC3CC3)c1)cn2CCF [cmpd 86, 3-{[4-amino-7-(2-fluoroethyl)-7H-pyrrolo[2,3-d]pyrimidin-5-yl]ethynyl}-N-cyclopropylbenzamide] | 1910 | 0.025 | 0.018 | 
CN1CCC(n2cc(C#Cc3cccc(C(=O)NC4CC4)c3)c3c(N)ncnc32)C1 (centres unmarked) [cmpd 89, 3-{[4-amino-7-(1-methylpyrrolidin-3-yl)-7H-pyrrolo[2,3-d]pyrimidin-5-yl]ethynyl}-N-cyclopropylbenzamide] | 6690 | 0.136 | 0.127 | 
Nc1ncnc2[nH]cc(C#Cc3cccc(NC(=O)c4ccccc4)c3)c12 [cmpd 9, N-{3-[(4-amino-7H-pyrrolo[2,3-d]pyrimidin-5-yl)ethynyl]phenyl}benzamide] | 6900 | 0.865 |  | 
Nc1ncnc2c1c(C#Cc1cc(F)cc(C(=O)NC3CC3)c1)cn2CC(F)(F)F [cmpd 59, 3-{[4-amino-7-(2,2,2-trifluoroethyl)-7H-pyrrolo[2,3-d]pyrimidin-5-yl]ethynyl}-N-cyclopropyl-5-fluorobenzamide] | 2140 | 0.036 | 0.048 | 0.04
CCN1CCN(Cc2ccc(NC(=O)Cc3cccc(C#Cc4c[nH]c5ncnc(N)c45)c3)cc2C(F)(F)F)CC1 [cmpd 12, 2-[3-(4-Amino-7H-pyrrolo[2,3-d]pyrimidin-5-ylethynyl)-phenyl]-N-[4-(4-ethyl-piperazin-1-ylmethyl)-3-trifluoromethyl-phenyl]-acetamide] | 695 | 0.012 | 0.111 | 0.222
CC(C)n1cc(C#Cc2cc(C(=O)NC3CC3)ccc2C#N)c2c(N)ncnc21 [cmpd 108, 3-{[4-amino-7-(propan-2-yl)-7H-pyrrolo[2,3-d]pyrimidin-5-yl]ethynyl}-4-cyano-N-cyclopropylbenzamide] | 6110 | 0.023 | 0.045 | 
Nc1ncnc2[nH]cc(C#Cc3cccc(NC(=O)c4cccc(C(F)(F)F)c4)c3)c12 [cmpd 24, N-{3-[(4-amino-7H-pyrrolo[2,3-d]pyrimidin-5-yl)ethynyl]phenyl}-3-(trifluoromethyl)benzamide] | 137 | 0.003 | 0.066 | 0.024
Nc1ncnc2c1c(C#Cc1cccc(C(=O)NC3CC3)c1)cn2CCO [cmpd 37, 3-{[4-amino-7-(2-hydroxyethyl)-7H-pyrrolo[2,3-d]pyrimidin-5-yl]ethynyl}-N-cyclopropylbenzamide] | 6790 | 0.109 | 0.115 | 0.271
Nc1ncnc2c1c(C#Cc1cccc(C(=O)NC3CC3)c1)cn2CC1CCC1 [cmpd 95, 3-{[4-amino-7-(cyclobutylmethyl)-7H-pyrrolo[2,3-d]pyrimidin-5-yl]ethynyl}-N-cyclopropylbenzamide] | 2450 | 0.06 | 0.032 | 
Nc1ncnc2[nH]cc(C#Cc3cccc(NC(=O)Cc4cccc(C(F)(F)F)c4)c3)c12 [cmpd 11, N-[3-(4-Amino-7H-pyrrolo[2,3-d]pyrimidin-5-ylethynyl)-phenyl]-2-(3-trifluoromethyl-phenyl)-acetamide] | 601 | 0.249 |  | 
Nc1ncnc2c1c(C#Cc1cccc(C(=O)NC3CC3)c1)cn2CC1CC1 [cmpd 99, 3-{[4-amino-7-(cyclopropylmethyl)-7H-pyrrolo[2,3-d]pyrimidin-5-yl]ethynyl}-N-cyclopropylbenzamide] | 1800 | 0.017 | 0.019 | 
Nc1ncnc2[nH]cc(C#Cc3cccc(C(=O)NC4CC4)c3)c12 [cmpd 15, 3-[(4-amino-7H-pyrrolo[2,3-d]pyrimidin-5-yl)ethynyl]-N-cyclopropylbenzamide] | 4360 | 0.192 |  | 
CN1CCC(n2cc(C#Cc3cccc(C(=O)NC4CC4)c3)c3c(N)ncnc32)CC1 [cmpd 46, 3-{[4-amino-7-(1-methylpiperidin-4-yl)-7H-pyrrolo[2,3-d]pyrimidin-5-yl]ethynyl}-N-cyclopropylbenzamide] | 4320 | 0.023 | 0.02 | 
CC(C)n1cc(C#Cc2cc(F)cc(C(=O)NC3CC3)c2)c2c(N)ncnc21 [cmpd 58, 3-{[4-amino-7-(propan-2-yl)-7H-pyrrolo[2,3-d]pyrimidin-5-yl]ethynyl}-N-cyclopropyl-5-fluorobenzamide] | 539 | 0.004 | 0.004 | 
CC(C)n1cc(C#Cc2cc(C(=O)NC3CC3)ccc2F)c2c(N)ncnc21 [cmpd 53, 3-{[4-amino-7-(propan-2-yl)-7H-pyrrolo[2,3-d]pyrimidin-5-yl]ethynyl}-N-cyclopropyl-4-fluorobenzamide] | 837 | 0.01 | 0.009 | 
Cc1ccc(C(=O)NC2CC2)cc1C#Cc1cn(C(C)C)c2ncnc(N)c12 [cmpd 51, 3-{[4-amino-7-(propan-2-yl)-7H-pyrrolo[2,3-d]pyrimidin-5-yl]ethynyl}-N-cyclopropyl-4-methylbenzamide] | 1590 | 0.016 | 0.019 | 
Nc1ncnc2c1c(C#Cc1cccc(C(=O)NC3CC3)c1)cn2-c1cccnc1 [cmpd 68, 3-{[4-amino-7-(pyridin-3-yl)-7H-pyrrolo[2,3-d]pyrimidin-5-yl]ethynyl}-N-cyclopropylbenzamide] | 7180 | 0.043 | 0.021 | 
